This is an account of results in patent publication US20240239799A1, “(S)-1-(5-((PYRIDIN-3-YL)THIO)PYRAZIN-2-YL)-4'H,6'H-SPIRO[PIPERIDINE-4,5'-PYRROLO [1,2-B]PYRAZOL]-4'-AMINE DERIVATIVES AND SIMILAR COMPOUNDS AS SHP2 INHIBITORS FOR THE TREATMENT OF E.G. CANCER” (C.N.C.C.S. S.C.A.R.L. COLLEZIONE NAZIONALE DEI COMPOSTI …, priority 2021, published 2024).

SMILES strings stand for the structures. Read-outs that look alike come from different tables or passages of the source.

For test [1], the target named is T1, SHP-2 enzyme (Met1-Leu525) (Homo sapiens, UniProt Q06124).
T1 construct: synthetized by Origene, Met1-Leu525, cat #TP750155; purchased Origene TP750155
T1 sequence (Q06124 1-525): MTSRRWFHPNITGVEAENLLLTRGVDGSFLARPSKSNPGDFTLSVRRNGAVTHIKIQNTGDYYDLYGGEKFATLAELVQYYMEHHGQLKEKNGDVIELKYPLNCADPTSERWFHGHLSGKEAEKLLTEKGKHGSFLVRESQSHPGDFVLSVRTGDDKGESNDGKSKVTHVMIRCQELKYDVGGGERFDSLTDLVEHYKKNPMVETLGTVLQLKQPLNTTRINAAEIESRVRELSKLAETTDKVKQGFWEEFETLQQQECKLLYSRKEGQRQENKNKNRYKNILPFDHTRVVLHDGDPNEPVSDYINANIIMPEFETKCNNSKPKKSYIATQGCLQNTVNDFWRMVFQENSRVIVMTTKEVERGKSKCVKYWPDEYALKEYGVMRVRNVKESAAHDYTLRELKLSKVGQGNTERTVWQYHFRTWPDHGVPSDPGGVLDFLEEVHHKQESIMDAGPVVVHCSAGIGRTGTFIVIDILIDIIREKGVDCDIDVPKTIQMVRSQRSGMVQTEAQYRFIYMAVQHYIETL
In words: SHP2 inhibition enzymatic assay (DiFMUP substrate, IRS1 peptide activation). Particulars: 0.5 nM SHP-2, 500 nM IRS1 peptide, 75 μM DiFMUP; read-out: SHP2wt - IC50. The test is classed as biochemical.

In test [2] the test system is phospho-ERK1/2 (Thr202/Tyr204) in KYSE-520 cells. In words: Phospho-ERK cellular assay (TR-FRET). Type of test: cell-based. Particulars: KYSE-520 cells, 2 h at 37° C., read-out: pERK IC50. The gist of the method:
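KYSE-520 cells plated overnight, then exposed to compound for 2 h at 37° C and lysed. Phospho-ERK1/2 (Thr202/Tyr204) detected by TR-FRET with Eu-cryptate and D2 antibodies after overnight incubation at rt. IC50 from four-parameter fit, normalised to DMSO (0%) and no-cell (100%) controls.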
(Time-resolved FRET reads energy transfer from a long-lived donor to a nearby acceptor.)

The target of test [3] is T2, SHP2 (Avi-G4SG4S-PTPN11(1-525)) (Homo sapiens, UniProt Q06124).
T2 construct: (Avi-G4SG4S-PTPN11(1-525)); purchased Viva Biotech Ltd
T2 sequence (Q06124 1-525): T1 sequence (Q06124 1-525)
In words: Binding kinetic assay by surface plasmon resonance (SPR). Particulars: Biacore T200, single cycle kinetic, 1:1 Langmuir binding model; for koff: triplicate. Here is the method: A binding assay for measuring SHP2 inhibitors binding kinetic was developed using a Biacore T200 Instrument (Cytiva, Sweden). […] Data analysis was performed by Biacore T200 Evaluation software (Cytiva), and kinetic parameters were evaluated by a global fitting according to a 1:1 Langmuir binding model. Each molecule was tested in triplicate on separate flow channels.

What is called IC50 is the concentration at which inhibition is half-maximal. For orientation: koff means the first-order rate constant of dissociation. A high value points to a short-lived complex. `Nc1nccc(Sc2cnc(N3CCC4(CC3)Cn3ncc(Cl)c3[C@H]4N)cn2)c1Cl` [Example 7, (S)-1-(5-((2-amino-3-chloropyridin-4-yl)thio)pyrazin-2-yl)-3′-chloro-4′H,6′H-spiro[piperidine-4,5′-pyrrolo[1,2-b]pyrazol]-4′-amine]: the concentration for half-maximal inhibition (IC50) in test [1] was at most 50 nM; in test [2] (Homo sapiens, KYSE-520, 2 h), below 100 nM. Also, the “Residence time 1/koff SPR” value in test [3] is given as 3185 s. This compound also showed a dissociation rate constant (koff) in test [3] of 0.000314 s⁻¹.
For `Nc1nccc(Sc2cnc(N3CCC4(CC3)Cn3nccc3[C@H]4N)c3cncn23)c1Cl` [Example 19, (S)-1-(5-((2-amino-3-chloropyridin-4-yl)thio)imidazo[1,5-a]pyrazin-8-yl)-4′H,6′H-spiro[piperidine-4,5′-pyrrolo[1,2-b]pyrazol]-4′-amine] the same measures were at most 50 nM, below 100 nM, 5464 s and 0.000183 s⁻¹.
For the compound `Nc1nccc(Sc2cnc(N3CCC4(CC3)Cn3ncc(F)c3[C@H]4N)cn2)c1Cl` [Example 9, (S)-1-(5-((2-amino-3-chloropyridin-4-yl)thio)pyrazin-2-yl)-3′-fluoro-4′H,6′H-spiro[piperidine-4,5′-pyrrolo[1,2-b]pyrazol]-4′-amine], the IC50 in test [1] was at most 50 nM. Further, in test [2] (Homo sapiens, KYSE-520, 2 h), the 50% inhibitory concentration (IC50) is below 100 nM. Moreover, in test [3], the “Residence time 1/koff SPR” value came to 9615 s and the off-rate constant (koff) worked out at 0.000104 s⁻¹.
The corresponding values for `Nc1nccc(Sc2cnc(N3CCC4(CC3)Cn3nncc3[C@H]4N)cn2)c1Cl` [Example 38, (S)-1-(5-((2-amino-3-chloropyridin-4-yl)thio)pyrazin-2-yl)-4′H,6′H-spiro[piperidine-4,5′-pyrrolo[1,2-c][1,2,3]triazol]-4′-amine] are at most 50 nM, below 100 nM, 1062 s and 0.000942 s⁻¹.
The corresponding values for `Nc1nccc(Sc2cnc(N3CCC4(CC3)Cn3nc5c(c3[C@H]4N)COC5)c3cncn23)c1Cl` [Example 29, (S)-1′-(5-((2-amino-3-chloropyridin-4-yl)thio)imidazo[1,5-a]pyrazin-8-yl)-1,8-dihydro-3H,6H-spiro[furo[3,4-d]pyrrolo[1,2-b]pyrazole-7,4′-piperidin]-8-amine] are at most 50 nM, above 500 nM, 1715 s and 0.000583 s⁻¹.
As for `Cc1cc2n(n1)CC1(CCN(c3ncc(Sc4ccnc(N)c4Cl)n4cncc34)CC1)[C@@H]2N` [Example 23, (S)-1-(5-((2-amino-3-chloropyridin-4-yl)thio)imidazo[1,5-a]pyrazin-8-yl)-2′-methyl-4′H,6′H-spiro[piperidine-4,5′-pyrrolo[1,2-b]pyrazol]-4′-amine], the IC50 in test [1] was at most 50 nM. Also, the IC50 in test [2] (Homo sapiens, KYSE-520, 2 h) is below 100 nM. Moreover, in test [3], the “Residence time 1/koff SPR” value stood at 6536 s and the koff turned out to be 0.000153 s⁻¹.
`Nc1nccc(Sc2ccc3nc(N4CCC5(CC4)Cn4nccc4[C@H]5N)cnc3n2)c1Cl` [Example 73, (S)-1-(6-((2-amino-3-chloropyridin-4-yl)thio)pyrido[2,3-b]pyrazin-2-yl)-4′H,6′H-spiro[piperidine-4,5′-pyrrolo[1,2-b]pyrazol]-4′-amine]: the IC50 in test [1] is at most 50 nM; in test [2] (Homo sapiens, KYSE-520, 2 h), below 100 nM.
On to `Nc1nc(N2CCC3(CC2)Cn2nccc2[C@H]3N)cnc1Sc1ccnc(-n2ccnc2)c1Cl` [Example 63, (S)-1-(6-amino-5-((3-chloro-2-(1H-imidazol-1-yl)pyridin-4-yl)thio)pyrazin-2-yl)-4′H,6′H-spiro[piperidine-4,5′-pyrrolo[1,2-b]pyrazol]-4′-amine], for which the IC50 in test [1] is at most 50 nM; in test [2] (Homo sapiens, KYSE-520, 2 h) it was below 100 nM.
For `N[C@@H]1c2ccnn2CC12CCN(c1cnc(Sc3ccncc3Cl)cn1)CC2` [Example 80, (S)-1-(5-((3-chloropyridin-4-yl)thio)pyrazin-2-yl)-4′H,6′H-spiro[piperidine-4,5′-pyrrolo[1,2-b]pyrazol]-4′-amine] the same measures were at most 50 nM and below 100 nM.
The corresponding values for `N[C@@H]1c2ccnn2CC12CCN(c1cnc3c(-c4ccnc(-n5cccn5)c4Cl)n[nH]c3n1)CC2` [Example 71, (S)-1-(3-(3-chloro-2-(1H-pyrazol-1-yl)pyridin-4-yl)-1H-pyrazolo[3,4-b]pyrazin-6-yl)-4′H,6′H-spiro[piperidine-4,5′-pyrrolo[1,2-b]pyrazol]-4′-amine] are at most 50 nM and 100 to 500 nM.
On to `N[C@@H]1c2ccnn2CC12CCN(c1ncc(Sc3ccnc4c3OC[C@H]3CC5(CC5)CN43)n3cncc13)CC2` [Example 24, (S)-1-(5-(((R)-6a′,7′-dihydro-6′H,9′H-spiro[cyclopropane-1,8′-pyrido[3,2-b]pyrrolo[1,2-d][1,4]oxazin]-4′-yl)thio)imidazo[1,5-a]pyrazin-8-yl)-4′H,6′H-spiro[piperidine-4,5′-pyrrolo[1,2-b]pyrazol]-4′-amine], for which the IC50 in test [1] was 50 to 300 nM; in test [2] (Homo sapiens, KYSE-520, 2 h) it was above 500 nM.
The corresponding values for `NC(=O)c1cnn(-c2nccc(Sc3cnc(N4CCC5(CC4)Cn4nccc4[C@H]5N)cn3)c2Cl)c1` [Example 65, (S)-1-(4-((5-(4′-amino-4′H,6′H-spiro[piperidine-4,5′-pyrrolo[1,2-b]pyrazol]-1-yl)pyrazin-2-yl)thio)-3-chloropyridin-2-yl)-1H-pyrazole-4-carboxamide] are at most 50 nM and below 100 nM.
As to `Cc1nc(N2CCC3(CC2)Cn2nccc2[C@H]3N)cc(=O)n1-c1cccc(Cl)c1Cl` (single isomer, unassigned) [Example 77b], the IC50 in test [1] was above 300 nM; in test [2] it was above 500 nM.
For `Nc1nc(N2CCC3(CC2)Cn2nccc2[C@H]3N)cnc1Sc1cccnc1C(F)(F)F` [Example 3, (S)-1-(6-amino-5-((2-(trifluoromethyl)pyridin-3-yl)thio)pyrazin-2-yl)-4′H,6′H-spiro[piperidine-4,5′-pyrrolo[1,2-b]pyrazol]-4′-amine], the concentration for half-maximal inhibition (IC50) in test [1] was at most 50 nM; in test [2] (Homo sapiens, KYSE-520, 2 h), below 100 nM.
Regarding `Nc1nc(N2CCC3(CC2)Cn2nncc2[C@H]3N)cnc1Sc1cccnc1C(F)(F)F` [Example 36, (S)-1-(6-amino-5-((2-(trifluoromethyl)pyridin-3-yl)thio)pyrazin-2-yl)-4′H,6′H-spiro[piperidine-4,5′-pyrrolo[1,2-c][1,2,3]triazol]-4′-amine], the concentration for half-maximal inhibition (IC50) in test [1] is at most 50 nM; in test [2] (Homo sapiens, KYSE-520, 2 h), above 500 nM.
Regarding `Cc1nc(N2CCC3(CC2)Cn2nccc2[C@H]3N)c(Cl)c(=O)n1-c1cccc(Cl)c1Cl` (single isomer, unassigned) [Example 78b], the 50% inhibitory concentration (IC50) was above 300 nM in test [1] and above 500 nM in test [2].
Take `CN(C)C(=O)c1cn2ccc(Sc3cnc(N4CCC5(CC4)Cn4nccc4[C@H]5N)cn3)c(Cl)c2n1` [Example 68, (S)-7-((5-(4′-amino-4′H,6′H-spiro[piperidine-4,5′-pyrrolo[1,2-b]pyrazol]-1-yl)pyrazin-2-yl)thio)-8-chloro-N,N-dimethylimidazo[1,2-a]pyridine-2-carboxamide]: the IC50 in test [1] was at most 50 nM; in test [2] (Homo sapiens, KYSE-520, 2 h), below 100 nM.
For `N[C@@H]1c2ccnn2CC12CCN(c1cnc(Sc3ccnc(-n4cc(F)cn4)c3Cl)cn1)CC2` [Example 61, (S)-1-(5-((3-chloro-2-(4-fluoro-1H-pyrazol-1-yl)pyridin-4-yl)thio)pyrazin-2-yl)-4′H,6′H-spiro[piperidine-4,5′-pyrrolo[1,2-b]pyrazol]-4′-amine], the IC50 was at most 50 nM in test [1] and below 100 nM in test [2] (Homo sapiens, KYSE-520, 2 h).
Turning to `N[C@@H]1c2ccnn2CC12CCN(c1cnc(Sc3ccnc4c3OC[C@@H]3CC5(CC5)CN43)cn1)CC2` [Example 25, (S)-1-(5-(((S)-6a′,7′-dihydro-6′H,9′H-spiro[cyclopropane-1,8′-pyrido[3,2-b]pyrrolo[1,2-d][1,4]oxazin]-4′-yl)thio)pyrazin-2-yl)-4′H,6′H-spiro[piperidine-4,5′-pyrrolo[1,2-b]pyrazol]-4′-amine], the 50% inhibitory concentration (IC50) in test [1] was at most 50 nM; in test [2] (Homo sapiens, KYSE-520, 2 h), below 100 nM.
The corresponding values for `N[C@@H]1c2ccnn2CC12CCN(c1cnc(Sc3ccn4c([N+](=O)[O-])cnc4c3Cl)cn1)CC2` [Example 52, (S)-1-(5-((8-chloro-3-nitroimidazo[1,2-a]pyridin-7-yl)thio)pyrazin-2-yl)-4′H,6′H-spiro[piperidine-4,5′-pyrrolo[1,2-b]pyrazol]-4′-amine] are at most 50 nM and below 100 nM.
